≈ marks a conversion by molar mass, not a printed value. Where two headings read alike, the source gives them in different places.
Assays:
E coli wild type = experiment: MIC by broth microdilution, wild type E coli; format: cell-based; conditions: for MIC: Escherichia coli
P aeruginosa = experiment: MIC by broth microdilution, P aeruginosa isolates; format: cell-based, Pseudomonas aeruginosa; conditions: strain AG220 Pseudomonas aeruginosa ATCC27853; for MIC: read-out: MIC AG220 P. aerugin
[1] = test system: Klebsiella pneumonia AG215; experiment: MIC by broth microdilution, Klebsiella pneumonia; format: cell-based; conditions: strain AG215 Klebsiella pneumonia; for MIC: Klebsiella pneumoniae, read-out: MIC AG215 K. pneumon
[2] = test system: Acinetobacter baumannii pittii AG225; experiment: MIC by broth microdilution, Acinetobacter baumannii; format: cell-based; conditions: strain AG225 Acinetobacter baumannii pittii
[3] = test system: Enterobacter cloacae AG290; experiment: MIC by broth microdilution, Enterobacter cloacae; format: cell-based; conditions: strain AG290 Enterobacter cloacae; for MIC: read-out: MIC AG290 E. cloacae
[4] = test system: E coli carrying specific resistance determinants; experiment: MIC by broth microdilution, E coli carrying specific resistance determinants; format: cell-based; conditions: for MIC: Escherichia coli
M. abscessus = experiment: MIC by broth microdilution, M. abscessus; format: cell-based; conditions: for MIC: Mycobacteroides abscessus
M. smegmatis SZ380 = experiment: MIC by broth microdilution, M. smegmatis; conditions: for MIC: Mycolicibacterium smegmatis
MRSA = experiment: MIC by broth microdilution, MRSA isolates; format: cell-based; conditions: strain AG38; Table 1 (Example 2)
[5] = ATCC25922, strain AG212 E. coli (ATCC25922), read-out: MIC AG212 E. coli

Compound | MIC (E coli wild type; [5]) [µg/mL] | MIC (P aeruginosa) [µg/mL] | MIC [1] [µg/mL] | MIC [2] [µg/mL] | MIC [3] [µg/mL] | further results
CCC[C@@H]1C(CNCCO)O[C@H](O[C@@H]2C(N)C[C@@H](N)C(O)[C@H]2O[C@@H]2O[C@H](CNCCO)[C@H](O[C@H]3OC(CN)[C@@H](O)C(O)C3N)C2O)[C@@H](N)C1O (stereo partly drawn) [Compound 193] | 4 (≈ 5.5 µM) | > 64 | 2 (≈ 2.75 µM) | 32 (≈ 44 µM) | 2 (≈ 2.75 µM) | 
gentamicin [reference compound] |  |  |  |  |  | MIC E. coli WT (E coli wild type; WT, Table 5 (Example 3)): 0.5 µg/mL; MIC E. coli AG106 AAC(2′)-Ia ([4]; AG106 AAC(2′)-Ia, Table 5 (Example 3)): 2 to 4 µg/mL; MIC E. coli pGB2armA armA ([4]; pGB2armA armA, Table 5 (Example 3)): >128 μg/ml; MIC M. abscessus ATCC 19977 WT (M. abscessus; ATCC 19977 WT, Table 5 (Example 3)): 2 to 4 µg/mL; MIC M. abscessus engineered Δeis2 (M. abscessus; engineered Δeis2, Table 5 (Example 3)): 2 µg/mL; MIC M. smegmatis SZ380 WT (M. smegmatis SZ380; SZ380 WT, Table 5 (Example 3)): 1 µg/mL
CCNC1[C@@H](OC2C(N)CC(N)[C@@H](O)[C@H]2O[C@@H]2O[C@H](CO)[C@H](O)C2O)OC(CN)[C@@H](O)[C@@H]1O (stereo partly drawn) [Compound 037] |  |  |  |  |  | MIC (E coli wild type; WT, Table 5 (Example 3), read-out: MIC E. coli WT): 16 to 32 µg/mL (≈ 33.2 to 66.3 µM); MIC ([4]; read-out: MIC E. coli pGB2armA armA): 64 to 128 µg/mL (≈ 133 to 265 µM); MIC ([4]; read-out: MIC E. coli pH434 AAC(2′)-Ib): 32 µg/mL (≈ 66.3 µM); MIC (M. abscessus; ATCC19977, ATCC 19977 WT, Table 5 (Example 3), read-out: MIC M. abscessus ATCC 19977 WT): 128 µg/mL (≈ 265 µM); MIC (M. abscessus; read-out: MIC M. abscessus clinical isolate): > 128 µg/mL; MIC (M. abscessus; read-out: MIC M. abscessus engineered Δeis2): 32 µg/mL (≈ 66.3 µM); MIC (M. smegmatis SZ380; SZ380, read-out: MIC M. smegmatis SZ380 WT, SZ380 WT, Table 5 (Example 3)): 64 µg/mL (≈ 133 µM)
CCC(O)C1OC(OC2C(N)CC(N)C(O)C2OC2OC(CO)C(OC3OC(CN)C(O)C(O)C3N)C2O)C(N)C(O)C1O (stereo not drawn) [Compound 189] |  |  |  |  |  | MIC50 MRSA AG38 (MRSA): 4 to 8 µg/mL; MIC AG212 E. coli (E coli wild type; strain AG212 E. coli (ATCC25922)): 8 µg/mL (≈ 12.4 µM); MIC AG220 P. aerugin (P aeruginosa): >64 µg/mL; MIC AG215 K. pneumon [1]: 2 µg/mL (≈ 3.11 µM); MIC AG225 A. baumannii [2]: 4 to 8 µg/mL; MIC AG290 E. cloacae [3]: 2 to 4 µg/mL
NCC1O[C@H](O[C@@H]2C(O)[C@H](O[C@@H]3C(O)[C@H](N)CC(N)[C@H]3O[C@H]3OC(CO)[C@@H](CCO)C(O)[C@@H]3N)O[C@@H]2CO)C(N)C(O)[C@@H]1O (stereo partly drawn) [Compound 197] | 2 to 4 (≈ 3.11 to 6.21 µM) | 32 (≈ 49.7 µM) | 1 (≈ 1.55 µM) | 2 (≈ 3.11 µM) | 1 to 2 (≈ 1.55 to 3.11 µM) | 
NCC1O[C@H](O[C@@H]2C(O)[C@H](O[C@@H]3C(O)[C@H](N)CC(N)[C@H]3O[C@H]3OC(CO)[C@@H](CCCO)C(O)[C@@H]3N)O[C@@H]2CO)C(N)C(O)[C@@H]1O (stereo partly drawn) [Compound 195] | 8 (≈ 12.2 µM) | 64 (≈ 97.3 µM) | 2 to 4 (≈ 3.04 to 6.08 µM) | 8 (≈ 12.2 µM) | 4 (≈ 6.08 µM) | 
NCC1O[C@H](O[C@@H]2C(O)[C@H](O[C@@H]3C(O)[C@H](N)CC(N)[C@H]3O[C@H]3OC(CO)[C@@H](CC(O)CO)C(O)[C@@H]3N)O[C@@H]2CO)C(N)C(O)[C@@H]1O (stereo partly drawn) [Compound 198] | 8 (≈ 11.9 µM) | 16 (≈ 23.7 µM) | 2 to 4 (≈ 2.97 to 5.94 µM) | 8 (≈ 11.9 µM) | 4 (≈ 5.94 µM) | 
CCO[C@@H]1C(CN)O[C@H](O[C@@H]2C(N)C[C@@H](N)C(O)[C@H]2O[C@@H]2O[C@H](CO)[C@H](OCCN)C2O)[C@@H](N)C1O (stereo partly drawn) [Compound 073] | 8 (≈ 15.2 µM) | > 128 | 4 (≈ 7.61 µM) | 8 (≈ 15.2 µM) | 4 (≈ 7.61 µM) | MIC (M. smegmatis SZ380; SZ380, read-out: MIC SZ380 M. smegmatis, strain SZ380 Mycobacterium smegmatis): 8 µg/mL (≈ 15.2 µM)

Reference: US11466044B2 (WAYNE STATE UNIVERSITY, priority 2017, dated 2022)
